Reference: ChEMBL document CHEMBL1201862, “PubChem BioAssay data set” (2004)
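How tested: cells in 96-well plates exposed to compound for 48 hours at five concentrations. Abbreviation: GI50, concentration required for 50% inhibition of growth.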 Active and inactive are the calls of the source. No stated cut-off is given here; in the data, active = GI50 up to about 1.1 µM and inactive = higher.

Legend:
Experiment in all cases: DTP human tumour cell line panel, 48 h
SK-MEL-5 = system: SK-MEL-5
Malme-3M = system: Malme-3M
KM12 = system: KM12
IGROV-1 = system: IGROV-1
HCC 2998 = system: HCC 2998
UACC-257 = system: UACC-257
SNB-19 = system: SNB-19
SF-268 = system: SF-268
M14 = system: M14
SK-MEL-28 = system: SK-MEL-28
OVCAR-8 = system: OVCAR-8
HCT-15 = system: HCT-15
NCI-H522 = system: NCI-H522
OVCAR-3 = system: OVCAR-3
NCI-H226 = system: NCI-H226
UACC-62 = system: UACC-62
SN12C = system: SN12C
A549 = system: A549
RPMI-8226 = system: RPMI-8226
EKVX = system: EKVX

Row | SMILES | GI50 (SK-MEL-5) | GI50 (Malme-3M) | GI50 (KM12) | GI50 (IGROV-1) | GI50 (HCC 2998) | GI50 (UACC-257) | GI50 (SNB-19) | GI50 (SF-268) | GI50 (M14) | GI50 (SK-MEL-28) | GI50 (OVCAR-8) | GI50 (HCT-15) [µM] | GI50 (NCI-H522) | GI50 (OVCAR-3) | GI50 (NCI-H226) | GI50 (UACC-62) | GI50 (SN12C) | GI50 (A549) | GI50 (RPMI-8226) | GI50 (EKVX)
1 | CC(=O)/N=C1\N/C(=C\c2ccc(Cl)cc2)C(=O)N1/C=C1\C(=O)Oc2ccccc2C1=O | 47.2 µM (inactive) | > 100 µM (inactive) | > 100 µM (inactive) | > 100 µM (inactive) | > 100 µM (inactive) | > 100 µM (inactive) | > 100 µM (inactive) | 45.9 µM (inactive) | > 100 µM (inactive) | > 100 µM (inactive) | > 100 µM (inactive) | 85.1 | 78.9 µM (inactive) | 77.8 µM (inactive) | > 100 µM (inactive) | 26.3 µM (inactive) | > 100 µM (inactive) | > 100 µM (inactive) | > 100 µM (inactive) | 13.3 µM (inactive)
2 | N#CC(C(=O)CCC(=O)Nc1cccc(C(F)(F)F)c1)c1ccccc1 (stereo unspecified) | > 100 µM (inactive) | > 100 µM (inactive) | > 100 µM (inactive) | > 100 µM (inactive) | > 100 µM (inactive) | > 100 µM (inactive) | > 100 µM (inactive) | > 100 µM (inactive) | > 100 µM (inactive) | > 100 µM (inactive) | > 100 µM (inactive) | > 100 | > 100 µM (inactive) | > 100 µM (inactive) | > 100 µM (inactive) | > 100 µM (inactive) | > 100 µM (inactive) | > 100 µM (inactive) | > 100 µM (inactive) | > 100 µM (inactive)
3 | COc1cc(CNc2nc3cc(C(F)(F)F)ccc3nc2-c2ccccc2)cc(OC)c1OC | 25.2 µM (inactive) | 21.3 µM (inactive) | 14.8 µM (inactive) | 25.9 µM (inactive) | 19.8 µM (inactive) | 33.6 µM (inactive) | > 100 µM (inactive) | 40.6 µM (inactive) | 30.5 µM (inactive) | 49.7 µM (inactive) | 33.2 µM (inactive) | 17.3 | 22.3 µM (inactive) | 24.6 µM (inactive) | 32.3 µM (inactive) | 8.53 µM (inactive) | 24.3 µM (inactive) | 37.3 µM (inactive) | 25.6 µM (inactive) | 10.9 µM (inactive)
4 | O=C(CCl)NNC1=Nc2ccc(Cl)cc2SC1 | 2.36 µM (inactive) | 1.69 µM (inactive) | 5.02 µM (inactive) | 1.95 µM (inactive) | 5.4 µM (inactive) | 3.23 µM (inactive) | 13.5 µM (inactive) | 1.69 µM (inactive) | – | 2.03 µM (inactive) | 1.4 µM (inactive) | 1.81 | 0.553 µM (active) | 1.78 µM (inactive) | 2.61 µM (inactive) | 2.12 µM (inactive) | 1.95 µM (inactive) | 9.33 µM (inactive) | 1.86 µM (inactive) | 2.07 µM (inactive)
5 | CSc1nc2c(ncn2C2OCC(O)C(O)C2O)c(=O)[nH]1 (stereo unspecified) | > 100 µM (inactive) | > 100 µM (inactive) | > 100 µM (inactive) | > 100 µM (inactive) | > 100 µM (inactive) | > 100 µM (inactive) | > 100 µM (inactive) | > 100 µM (inactive) | – | > 100 µM (inactive) | > 100 µM (inactive) | > 100 | > 100 µM (inactive) | > 100 µM (inactive) | > 100 µM (inactive) | > 100 µM (inactive) | > 100 µM (inactive) | > 100 µM (inactive) | > 100 µM (inactive) | > 100 µM (inactive)
6 | Cc1ccc(NP(=O)(Oc2ccccc2)N(CCCl)CCCl)cc1 (stereo unspecified) | 74.5 µM (inactive) | 92.7 µM (inactive) | 91 µM (inactive) | 90.8 µM (inactive) | 3.56 µM (inactive) | 28.6 µM (inactive) | – | 80.5 µM (inactive) | > 100 µM (inactive) | > 100 µM (inactive) | 99.1 µM (inactive) | 45.2 | > 100 µM (inactive) | 54.6 µM (inactive) | 39.6 µM (inactive) | > 100 µM (inactive) | 91 µM (inactive) | 48.2 µM (inactive) | 5.5 µM (inactive) | > 100 µM (inactive)
7 | O=c1[nH]c(=O)n(C2OC3COC2C3O)cc1F (stereo unspecified) | > 100 µM (inactive) | > 100 µM (inactive) | > 100 µM (inactive) | – | > 100 µM (inactive) | > 100 µM (inactive) | > 100 µM (inactive) | > 100 µM (inactive) | > 100 µM (inactive) | > 100 µM (inactive) | > 100 µM (inactive) | > 100 | > 100 µM (inactive) | > 100 µM (inactive) | 41.5 µM (inactive) | – | > 100 µM (inactive) | > 100 µM (inactive) | > 100 µM (inactive) | > 100 µM (inactive)
8 | CCCCCn1cc2c3c(cccc31)C1C=C(C)CN(C)[C@@H]1C2.Cc1ccc(C(=O)OC(C(=O)O)C(OC(=O)c2ccc(C)cc2)C(=O)O)cc1 (stereo unspecified) | 3.06 µM (inactive) | 2.56 µM (inactive) | 5.92 µM (inactive) | 8.22 µM (inactive) | 2.6 µM (inactive) | 4.21 µM (inactive) | 10.4 µM (inactive) | 11 µM (inactive) | – | 6.93 µM (inactive) | 12.3 µM (inactive) | 4.58 | 3.44 µM (inactive) | 6.75 µM (inactive) | 9.79 µM (inactive) | 5.25 µM (inactive) | 13 µM (inactive) | 9.33 µM (inactive) | 2.64 µM (inactive) | 10.8 µM (inactive)
9 | O=c1c2c(nc3[nH]ccn13)CCCC2 | > 10 µM (inactive) | > 10 µM (inactive) | > 10 µM (inactive) | > 10 µM (inactive) | > 10 µM (inactive) | – | > 10 µM (inactive) | > 10 µM (inactive) | > 10 µM (inactive) | > 10 µM (inactive) | > 10 µM (inactive) | > 10 | > 10 µM (inactive) | > 10 µM (inactive) | > 10 µM (inactive) | > 10 µM (inactive) | > 10 µM (inactive) | > 10 µM (inactive) | > 10 µM (inactive) | > 10 µM (inactive)
10 | O=C1Nc2cc([N+](=O)[O-])c(Br)cc2C1=O | 21.1 µM (inactive) | 22.5 µM (inactive) | 51.4 µM (inactive) | 17.5 µM (inactive) | > 10 µM (inactive) | 18 µM (inactive) | > 10 µM (inactive) | 20.9 µM (inactive) | 16.6 µM (inactive) | 21.3 µM (inactive) | 16.4 µM (inactive) | 18.9 | 16.6 µM (inactive) | 18.1 µM (inactive) | 18.5 µM (inactive) | 18.7 µM (inactive) | 18.4 µM (inactive) | 95.7 µM (inactive) | 17.6 µM (inactive) | 22.4 µM (inactive)
11 | CC1(C(=O)O)CCC(C(=O)O)C(C)(C)O1 (stereo unspecified) | > 100 µM (inactive) | > 100 µM (inactive) | > 100 µM (inactive) | > 100 µM (inactive) | > 100 µM (inactive) | > 100 µM (inactive) | > 100 µM (inactive) | > 100 µM (inactive) | > 100 µM (inactive) | > 100 µM (inactive) | > 100 µM (inactive) | – | > 100 µM (inactive) | 29.2 µM (inactive) | > 100 µM (inactive) | > 100 µM (inactive) | > 100 µM (inactive) | > 100 µM (inactive) | > 100 µM (inactive) | > 100 µM (inactive)
12 | N#C/C(=C\c1ccncc1)c1csc2ccccc12 | 16.8 µM (inactive) | 32.7 µM (inactive) | 18.5 µM (inactive) | 28 µM (inactive) | 17.4 µM (inactive) | 23.7 µM (inactive) | 26 µM (inactive) | 22.9 µM (inactive) | – | 34.1 µM (inactive) | 28.5 µM (inactive) | 24 | 17.5 µM (inactive) | 21.3 µM (inactive) | 26.4 µM (inactive) | 22.1 µM (inactive) | 23.6 µM (inactive) | 23.4 µM (inactive) | 18.6 µM (inactive) | 23.8 µM (inactive)
13 | CN(C)c1ccc2nc(CC(O)(C(F)(F)F)C(F)(F)F)ccc2c1 | > 10 µM (inactive) | > 10 µM (inactive) | > 10 µM (inactive) | > 10 µM (inactive) | > 10 µM (inactive) | > 10 µM (inactive) | > 10 µM (inactive) | > 10 µM (inactive) | > 10 µM (inactive) | > 10 µM (inactive) | > 10 µM (inactive) | > 10 | > 10 µM (inactive) | > 10 µM (inactive) | > 10 µM (inactive) | > 10 µM (inactive) | > 10 µM (inactive) | > 10 µM (inactive) | > 10 µM (inactive) | > 10 µM (inactive)
14 | COC1=C2CC(C)CC(OC)C(OC(=O)CN)[C@H](C)/C=C(\C)C(OC(N)=O)C(OC)/C=C\C=C(/C)C(=O)NC(=CC1=O)C2=O (stereo partly specified) | 0.855 µM (active) | 0.351 µM (active) | 1.24 µM (inactive) | 0.453 µM (active) | 1.9 µM (inactive) | 0.359 µM (active) | 6.55 µM (inactive) | 3.44 µM (inactive) | 0.451 µM (active) | 0.161 µM (active) | 0.94 µM (active) | 0.899 | 0.159 µM (active) | 0.481 µM (active) | 10.4 µM (inactive) | 0.468 µM (active) | 0.412 µM (active) | 9.73 µM (inactive) | 0.902 µM (active) | 0.838 µM (active)
15 | Cc1ccc2[nH]c3c(C)c4ccncc4c(C)c3c2c1 | 1.6 µM (inactive) | 1.9 µM (inactive) | 0.614 µM (active) | 0.944 µM (active) | 1.48 µM (inactive) | 1.41 µM (inactive) | 1.24 µM (inactive) | 0.733 µM (active) | 1.67 µM (inactive) | 1.55 µM (inactive) | 0.328 µM (active) | 0.63 | 0.929 µM (active) | 1.12 µM (active) | 1.72 µM (inactive) | 1.62 µM (inactive) | 0.449 µM (active) | 0.966 µM (active) | 1.09 µM (active) | 1.47 µM (inactive)
